{"source": "patent US20020137929A1", "about": "“1 - (3-heterocyclylphenyl) isothiourea, -isourea, -guanidine and -amidine herbicidal agents” (Intellectual Property Department, BASF Aktiengesellschaft, priority 1998, published 2002)", "key": {"GALAP (Galium)": {"tested_on": "GALAP (Galium)", "experiment": "Postemergence herbicidal evaluation", "assay_type": "in vivo, Galium aparine", "conditions": "postemergence", "how_it_was_run": "(§1)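 First, seedlings were raised for around two weeks. Next, test material in 50/50 acetone/water containing 0.5% TWEEN 20 was sprayed through a nozzle at 40 psi, equivalent to about 0.0156–0.500 kg/ha. Finally, after 4–5 weeks in the greenhouse, plants were rated 0–9.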"}, "[1]": {"tested_on": "TRZAWR (Wheat, Winter, cv Riband)", "experiment": "Preemergence herbicidal evaluation", "assay_type": "in vivo, Triticum aestivum", "conditions": "rated 4-5 weeks after treatment", "how_it_was_run": "(§2)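 Greenhouse preemergence test: seed-soil mix sown on ~1 inch soil; aqueous acetone spray at equivalent of ~0.0156–0.500 kg/ha; greenhouse-held and watered; scored 0–9 visually at 4–5 weeks.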"}, "CYPIR (Rice Flatsedge)": {"tested_on": "CYPIR (Rice Flatsedge)", "experiment": "Postemergence weed control under flooded paddy conditions", "assay_type": "in vivo, Cyperus iria", "conditions": "postemergence weeds, 3-4 weeks after treatment", "how_it_was_run": "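Containers holding 3–5 cm weeds and rice at 1.5–2.5 leaves are flooded to 1.5–3 cm above soil. Compound in 50/50 v/v aqueous/acetone is then added directly to the water, about 0.0313–0.500 kg/ha. Plants are kept in the greenhouse and rated 0–9 visually at 3–4 weeks.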"}, "[2]": {"tested_on": "SAGPY (Arrowhead (Pygmaea))", "experiment": "Preemergence weed control under flooded paddy conditions", "assay_type": "in vivo, Sagittaria pygmaea", "conditions": "rated 3-4 weeks after treatment", "how_it_was_run": "(§3)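 Visual injury scored 0-9 against control three to four weeks post-treatment, greenhouse-grown. Application: acetone/water (50/50) solutions dosed directly into flood water (1.5-3 cm over silt loam, planted top 0.5 cm), roughly 0.0313 to 0.500 kg/ha active ingredient.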"}, "ZEAMX (Corn, Field)": {"tested_on": "ZEAMX (Corn, Field)", "experiment": "Preemergence herbicidal evaluation", "assay_type": "in vivo, Zea mays", "conditions": "rated 4-5 weeks after treatment", "how_it_was_run": "as §2"}, "ECHCG (Barnyardgrass)": {"tested_on": "ECHCG (Barnyardgrass)", "experiment": "Preemergence herbicidal evaluation", "assay_type": "in vivo, Echinochloa crus-galli", "conditions": "rated 4-5 weeks after treatment", "how_it_was_run": "as §2"}, "AMBEL (Ragweed, Common)": {"tested_on": "AMBEL (Ragweed, Common)", "experiment": "Postemergence herbicidal evaluation", "assay_type": "in vivo, Ambrosia artemisifolia", "conditions": "postemergence", "how_it_was_run": "as §1"}, "[3]": {"tested_on": "GLXMAW (Soybean, Williams)", "experiment": "Preemergence herbicidal evaluation", "assay_type": "in vivo, Glycine max, (L.) Merr. cv Williams", "conditions": "rated 4-5 weeks after treatment", "how_it_was_run": "as §2"}, "MOOVA (Monochoria)": {"tested_on": "MOOVA (Monochoria)", "experiment": "Preemergence weed control under flooded paddy conditions", "assay_type": "in vivo, Monochoria vaginalis", "conditions": "rated 3-4 weeks after treatment", "how_it_was_run": "as §3"}, "CASOB (Sicklepod) [4]": {"tested_on": "CASOB (Sicklepod)", "experiment": "Preemergence herbicidal evaluation", "assay_type": "in vivo, Cassia obtusifolia", "conditions": "rated 4-5 weeks after treatment", "how_it_was_run": "as §2"}, "ABUTH (Velvetleaf)": {"tested_on": "ABUTH (Velvetleaf)", "experiment": "Preemergence herbicidal evaluation", "assay_type": "in vivo, Abutilon theophrasti", "conditions": "rated 4-5 weeks after treatment", "how_it_was_run": "as §2"}, "CASOB (Sicklepod) [5]": {"tested_on": "CASOB (Sicklepod)", "experiment": "Postemergence herbicidal evaluation", "assay_type": "in vivo, Cassia obtusifolia", "conditions": "postemergence", "how_it_was_run": "as §1"}, "[6]": {"tested_on": "IPOHE (Morningglory, Ivyleaf)", "experiment": "Postemergence herbicidal evaluation", "assay_type": "in vivo, Ipomoea hederacea", "conditions": "postemergence", "how_it_was_run": "as §1"}, "[7]": {"tested_on": "IPOHE (Morningglory, Ivyleaf)", "experiment": "Preemergence herbicidal evaluation", "assay_type": "in vivo, Ipomoea hederacea", "conditions": "rated 4-5 weeks after treatment", "how_it_was_run": "as §2"}}}
{"smiles": "CCOC(=O)CN1C(=O)CO/C1=N/c1cc(-n2c(=O)cc(C(F)(F)F)n(C)c2=O)c(F)cc1Cl", "note": "[Compound 22, Ethyl 2-{{2-chloro-5-[3,6-dihydro-3-methyl-2,6-dioxo-4-(trifluoromethyl)-1(2H)-pyrimidinyl]-4-fluorophenyl}imino}-4-oxo-3-oxazolidineacetate]", "values": [{"measurement": "GALAP herbicidal rating", "setting": "GALAP (Galium); rate 0.0158 kg/ha", "result": 4.0}, {"measurement": "GALAP herbicidal rating", "setting": "GALAP (Galium); rate 0.0315 kg/ha", "result": 4.0}, {"measurement": "GALAP herbicidal rating", "setting": "GALAP (Galium); rate 0.0630 kg/ha", "result": 3.0}, {"measurement": "TRZAWR preemergence herbicidal rating", "setting": "[1]; rate 0.0156 kg/ha", "result": 0.0}, {"measurement": "TRZAWR preemergence herbicidal rating", "setting": "[1]; rate 0.0313 kg/ha", "result": 0.0}, {"measurement": "TRZAWR preemergence herbicidal rating", "setting": "[1]; rate 0.0625 kg/ha", "result": 1.0}, {"measurement": "TRZAWR preemergence herbicidal rating", "setting": "[1]; rate 0.1250 kg/ha", "result": 5.0}, {"measurement": "TRZAWR preemergence herbicidal rating", "setting": "[1]; rate 0.2500 kg/ha", "result": 7.0}, {"measurement": "Herbicidal rating CYPIR", "setting": "CYPIR (Rice Flatsedge); rate 0.1160 kg/ha", "result": 0.0}, {"measurement": "Herbicidal rating CYPIR", "setting": "CYPIR (Rice Flatsedge); rate 0.2310 kg/ha", "result": 0.0}, {"measurement": "Herbicidal rating CYPIR", "setting": "CYPIR (Rice Flatsedge); rate 0.4630 kg/ha", "result": 5.0}, {"measurement": "Herbicidal rating SAGPY", "setting": "[2]; 0.1160 kg/ha", "result": 4.0}, {"measurement": "Herbicidal rating SAGPY", "setting": "[2]; 0.2310 kg/ha", "result": 4.0}, {"measurement": "Herbicidal rating SAGPY", "setting": "[2]; 0.4630 kg/ha", "result": 5.0}, {"measurement": "ZEAMX preemergence herbicidal rating", "setting": "ZEAMX (Corn, Field); rate 0.0156 kg/ha", "result": 2.0}, {"measurement": "ZEAMX preemergence herbicidal rating", "setting": "ZEAMX (Corn, Field); rate 0.0313 kg/ha", "result": 5.0}, {"measurement": "ZEAMX preemergence herbicidal rating", "setting": "ZEAMX (Corn, Field); rate 0.0625 kg/ha", "result": 7.0}, {"measurement": "ZEAMX preemergence herbicidal rating", "setting": "ZEAMX (Corn, Field); rate 0.1250 kg/ha", "result": 8.0}, {"measurement": "ZEAMX preemergence herbicidal rating", "setting": "ZEAMX (Corn, Field); rate 0.2500 kg/ha", "result": 9.0}, {"measurement": "ECHCG preemergence herbicidal rating", "setting": "ECHCG (Barnyardgrass); rate 0.0156 kg/ha", "result": 0.0}, {"measurement": "ECHCG preemergence herbicidal rating", "setting": "ECHCG (Barnyardgrass); rate 0.0313 kg/ha", "result": 0.0}, {"measurement": "ECHCG preemergence herbicidal rating", "setting": "ECHCG (Barnyardgrass); rate 0.0625 kg/ha", "result": 0.0}, {"measurement": "ECHCG preemergence herbicidal rating", "setting": "ECHCG (Barnyardgrass); rate 0.1250 kg/ha", "result": 3.0}, {"measurement": "ECHCG preemergence herbicidal rating", "setting": "ECHCG (Barnyardgrass); rate 0.2500 kg/ha", "result": 9.0}, {"measurement": "AMBEL herbicidal rating", "setting": "AMBEL (Ragweed, Common); rate 0.0158 kg/ha", "result": 6.0}, {"measurement": "AMBEL herbicidal rating", "setting": "AMBEL (Ragweed, Common); rate 0.0315 kg/ha", "result": 6.0}, {"measurement": "AMBEL herbicidal rating", "setting": "AMBEL (Ragweed, Common); rate 0.0630 kg/ha", "result": 7.0}, {"measurement": "GLXMAW preemergence herbicidal rating", "setting": "[3]; rate 0.0156 kg/ha", "result": 0.0}, {"measurement": "GLXMAW preemergence herbicidal rating", "setting": "[3]; rate 0.0313 kg/ha", "result": 0.0}, {"measurement": "GLXMAW preemergence herbicidal rating", "setting": "[3]; rate 0.0625 kg/ha", "result": 3.0}, {"measurement": "GLXMAW preemergence herbicidal rating", "setting": "[3]; rate 0.1250 kg/ha", "result": 7.0}, {"measurement": "GLXMAW preemergence herbicidal rating", "setting": "[3]; rate 0.2500 kg/ha", "result": 9.0}, {"measurement": "Herbicidal rating MOOVA", "setting": "MOOVA (Monochoria); 0.1160 kg/ha", "result": 9.0}, {"measurement": "Herbicidal rating MOOVA", "setting": "MOOVA (Monochoria); 0.2310 kg/ha", "result": 9.0}, {"measurement": "Herbicidal rating MOOVA", "setting": "MOOVA (Monochoria); 0.4630 kg/ha", "result": 9.0}, {"measurement": "CASOB preemergence herbicidal rating", "setting": "CASOB (Sicklepod) [4]; rate 0.0156 kg/ha", "result": 0.0}, {"measurement": "CASOB preemergence herbicidal rating", "setting": "CASOB (Sicklepod) [4]; rate 0.0313 kg/ha", "result": 0.0}, {"measurement": "CASOB preemergence herbicidal rating", "setting": "CASOB (Sicklepod) [4]; rate 0.0625 kg/ha", "result": 0.0}, {"measurement": "CASOB preemergence herbicidal rating", "setting": "CASOB (Sicklepod) [4]; rate 0.1250 kg/ha", "result": 3.0}, {"measurement": "CASOB preemergence herbicidal rating", "setting": "CASOB (Sicklepod) [4]; rate 0.2500 kg/ha", "result": 9.0}, {"measurement": "ABUTH preemergence herbicidal rating", "setting": "ABUTH (Velvetleaf); rate 0.0156 kg/ha", "result": 9.0}, {"measurement": "ABUTH preemergence herbicidal rating", "setting": "ABUTH (Velvetleaf); rate 0.0313 kg/ha", "result": 9.0}, {"measurement": "ABUTH preemergence herbicidal rating", "setting": "ABUTH (Velvetleaf); rate 0.0625 kg/ha", "result": 9.0}, {"measurement": "ABUTH preemergence herbicidal rating", "setting": "ABUTH (Velvetleaf); rate 0.1250 kg/ha", "result": 9.0}, {"measurement": "ABUTH preemergence herbicidal rating", "setting": "ABUTH (Velvetleaf); rate 0.2500 kg/ha", "result": 9.0}, {"measurement": "CASOB herbicidal rating", "setting": "CASOB (Sicklepod) [5]; rate 0.0158 kg/ha", "result": 1.0}, {"measurement": "CASOB herbicidal rating", "setting": "CASOB (Sicklepod) [5]; rate 0.0315 kg/ha", "result": 2.0}, {"measurement": "CASOB herbicidal rating", "setting": "CASOB (Sicklepod) [5]; rate 0.0630 kg/ha", "result": 1.0}, {"measurement": "IPOHE herbicidal rating", "setting": "[6]; rate 0.0158 kg/ha", "result": 9.0}, {"measurement": "IPOHE herbicidal rating", "setting": "[6]; rate 0.0315 kg/ha", "result": 9.0}, {"measurement": "IPOHE herbicidal rating", "setting": "[6]; rate 0.0630 kg/ha", "result": 9.0}, {"measurement": "IPOHE preemergence herbicidal rating", "setting": "[7]; rate 0.0156 kg/ha", "result": 0.0}, {"measurement": "IPOHE preemergence herbicidal rating", "setting": "[7]; rate 0.0313 kg/ha", "result": 2.0}, {"measurement": "IPOHE preemergence herbicidal rating", "setting": "[7]; rate 0.0625 kg/ha", "result": 9.0}, {"measurement": "IPOHE preemergence herbicidal rating", "setting": "[7]; rate 0.1250 kg/ha", "result": 9.0}, {"measurement": "IPOHE preemergence herbicidal rating", "setting": "[7]; rate 0.2500 kg/ha", "result": 9.0}]}
